In patent US9822373B2, “Mutant cells for protein secretion and lignocellulose degradation” (The Regents of the University of California, priority 2011, dated 2017):

Legend:
[1] = tested on: cellulase genes (cbh-1, gh5-1, gh6-2); test: Quantitative RT-PCR, cellulase gene expression stated for the genes together; assay type: cell-based, Neurospora crassa; settings: for induction of cellulase gene expression: 4 hour induction with 1 mM; for induction of lignocellulolytic genes: wild-type N. crassa (WT) grown on the substance as sole carbon source
Description: Conidia from strains were inoculated at an OD595 equal to 0.05 in 50 ml Vogel's salts (45) with 2% w/v sucrose in a 250 ml Erlenmeyer flask and grown under constant light at 200 rpm for 16 hours. Biomass was then spun at 4200 rpm for 10 minutes and washed in Vogel's salts twice to remove any excess sucrose. […] Cultures were induced for 4 hrs under constant light at 200 rpm. The culture biomass was then harvested by filtration over a Whatman glass microfiber filter (GF/F) on a Buchner funnel and washed with 50 ml Vogel's salts. The biomass was flash frozen in liquid nitrogen and stored at −80° C. Three independent biological duplicates (flasks) were evaluated for each time point.
Total RNA from frozen samples was isolated using Zirconia/Silica beads (0.5 mm diameter; Biospec) and a Mini-Beadbeater-96 (Biospec) with 1 mL TRIzol reagent (Invitrogen) according to the manufacturer's instructions. The total RNA was further purified by digestion with TURBO DNA-free (Ambion) and an RNeasy kit (Qiagen). RNA concentration and integrity was checked by Nanodrop and agarose gel electrophoresis.
Quantitative RT-PCR was performed using the EXPRESS One-Step SYBR GreenER Kit (Invitrogen) and the StepOnePlus Real-Time PCR System (Applied Biosystems). Reactions were performed in triplicate with a total reaction volume of 10 μl including 300 nM each forward and reverse primers and 75 ng template RNA. Data Analysis was performed by the StepOne Software (Applied Biosystems) using the Relative Quantitation/Comparative CT (ΔΔCT) setting. Data was normalized to the endogenous control actin with expression on sucrose as the reference sample.

Neurospora crassa [2] = test: Secreted protein concentration in shake flask culture supernatant; assay type: cell-based; settings: for secreted protein concentration: 48 hours
Description: (§1) Strains were inoculated at an OD595 equal to 0.05 in 100 ml Vogel's salts with 1% (wt/vol) sucrose in a 250 ml Erlenmeyer flask and grown under constant light at 200 rpm for 24 hours. Cultures were then induced with 2% sucrose, 2% cellobiose, 1% sucrose/1% cellobiose, or 1% sucrose/1% Avicel®. Cultures continued to grow under constant light at 200 rpm for 5 days with supernatant collected at 1, 2, 3, 4 and 5 day. The collected supernatant was filtered through a 0.2 μm PES filter to remove biomass before being stored at −20° C. until all samples were collected. To visualize the secreted proteins, 15 μl of unconcentrated supernatant was run on a Criterion 10% Tris-HCL polyacrylamide gel and stained with Thermo Scientific GelCode Blue Stain Reagent.

[3] = tested on: Exoglucanase (Cellobiohydrolase I); test: MuLac (4-Methylumbelliferyl β-D-cellobioside) exoglucanase activity of culture supernatant; assay type: cell-based, Neurospora crassa
Description: as §1
Exoglucanase (Cellobiohydrolase I) activity was measured using a 4-Methylumbelliferyl β-D-cellobioside (MuLac) assay. This assay mainly measures the activity of CBH-1 and activity is expressed as the change in fluorescence over time resulting in the slope of a best-fit line as an indication of enzyme activity. Prior to performing this assay, any excess sugars in the culture supernatant were removed by passing the supernatant over a 5,000 Dalton concentrator (sartorius stedim Vivaspin 500). Retained proteins were washed twice with 50 mM sodium acetate pH 5 and diluted to 2 μg/μl to assure that the assay remained in the linear range. […] The assay was performed in a Beckman Coulter Paradigm plate reader set at 40° C. with excitation/emission wavelengths of 360/465 nm with readings every 30 seconds for 10 minutes. The slope of the best-fit line represents the MuLac activity for an individual culture supernatant. The MuLac activity is normalized to the initial dilution required to obtain a 2 μg/μl concentration in order to represent the undiluted activity. The activity of recombinant cellobiohydrolase-1 was used as a standard and data is presented as a percentage of the wild type activity on Avicel® after 4 days.

Neurospora crassa [4] = test: Avicel hydrolysis assay with shake flask culture supernatants; assay type: cell-based
Description: Cultures were grown in 1% sucrose for 24 hours followed by the addition of 2% sucrose or 0.2% cellobiose. Supernatant was harvested after 24 (WT, Δ3βG and Δ3βGΔcre) or 72 hours (Δ3βG). The WT Avicel® culture was grown for 5 days on 2% Avicel®, Δ3βG was grown in 1% sucrose for 24 hours followed by 48 hours in 1% Avicel® and Δ3βGΔcre was grown in 1% sucrose for 24 hours followed by 24 hours in 1% Avicel®.
Total Avicelase activity was conducted in 250 mL media bottles incubated at 50° C. on a orbital shaker at 200 rpm. Each bottle contained 1% cellulose (Avicel®) and 50 mM (pH 5.0) sodium acetate in a working volume of 50 mL. Tetracycline (10 μg/mL) was added to prevent microbial contamination. Bioreactor culture broth samples were buffer exchanged using a 10 kDa MWCO centrifugal filter to remove any soluble sugars prior to initiating hydrolysis experiments. After pre-incubating the hydrolysis mixture to 50° C., enzyme was added (1 mL filtered culture broth). Samples were taken every 4 hours for the first 12 hours and then every 12 hours thereafter for a total of 48 hours. Hydrolysis experiments were performed in triplicate.
Sucrose, fructose, glucose and cellobiose were measured on a DIONEX ICS-3000 HPLC (Dionex Corp., Sunnyvale, Calif.) using a CarboPac PA20 Analytical Column (3×150 mm) and a CarboPac PA20 guard column (3×30 mm) at 30° C. Following injection of 25 μl of diluted samples, elution was performed with 100 mM KOH (isocratic) at 0.4 ml/min. Sugars were detected using PAD, Four-Potential Carbohydrate Waveform and Peaks were analyzed using the Chromeleon software package.

**Q.** With `O=C[C@H](O)[C@@H](O)[C@@H](O)[C@H](O)CO` [D-(+)-galactose] as the compound, how does the “induction of cellulase gene expression” value ([1]; WT) read?
**A.** did not significantly induce

**Q.** And the “induction of cellulase gene expression” value ([1]; Δ3βG mutant)?
**A.** did not significantly induce

**Q.** `OC[C@H]1O[C@@H](O[C@H]2[C@H](O)[C@@H](O)[C@H](O[C@H]3[C@H](O)[C@@H](O)[C@H](O[C@H]4[C@H](O)[C@@H](O)C(O)O[C@@H]4CO)O[C@@H]3CO)O[C@@H]2CO)[C@H](O)[C@@H](O)[C@@H]1O` (some centres unmarked) [cellotetraose] was tested. Which “induction of lignocellulolytic genes” value [1] did it give?
**A.** not induced

**Q.** For `OC[C@H]1O[C@@H](O[C@H]2[C@H](O)[C@@H](O)[C@H](O[C@H]3[C@H](O)[C@@H](O)C(O)O[C@@H]3CO)O[C@@H]2CO)[C@H](O)[C@@H](O)[C@@H]1O` (some centres unmarked) [cellotriose], which “induction of lignocellulolytic genes” value [1] is on record?
**A.** not induced

**Q.** What does the source list for `OC[C@H]1O[C@@H](O[C@H]2[C@H](O)[C@@H](O)C(O)O[C@@H]2CO)[C@H](O)[C@@H](O)[C@H]1O` (some centres unmarked) [lactose]?
**A.** induction of cellulase gene expression ([1]; WT): did not significantly induce; induction of cellulase gene expression ([1]; Δ3βG mutant): did not significantly induce

**Q.** Which “induction of cellulase gene expression” value ([1]; WT) does the source give for `OC[C@H]1O[C@@H](O[C@H]2C(O)O[C@H](CO)[C@@H](O)[C@@H]2O)[C@H](O)[C@@H](O)[C@@H]1O` (some centres unmarked) [sophorose] here?
**A.** did not significantly induce

**Q.** And the “induction of cellulase gene expression” value ([1]; Δ3βG mutant)?
**A.** did not significantly induce

**Q.** What does the source list for `OC[C@H]1O[C@@](CO)(O[C@H]2O[C@H](CO)[C@@H](O)[C@H](O)[C@H]2O)[C@@H](O)[C@@H]1O` [sucrose]?
**A.** secreted protein concentration (Neurospora crassa [2]; WT): 270 µg/mL; secreted protein (Neurospora crassa [2]; triple β-glucosidase deletion, after 2 days): 180 µg/mL; secreted protein concentration (Neurospora crassa [2]; Δcre-1): 481 µg/mL; MuLac activity ([3]; triple β-glucosidase deletion, two days): no activity towards MuLac; activity of secreted proteins towards MuLac ([3]; Δcre-1, on sucrose): do not exhibit any activity towards MuLac; induction of lignocellulolytic genes [1]: not induced; hydrolysis of crystalline cellulose by culture supernatant (Neurospora crassa [4]; WT cultures grown on or induced with the substance): unable to produce glucose or cellobiose from crystalline cellulose; hydrolysis of crystalline cellulose by culture supernatant (Neurospora crassa [4]; Δ3βG cultures grown on or induced with the substance): unable to produce glucose or cellobiose from crystalline cellulose; hydrolysis of crystalline cellulose by culture supernatant (Neurospora crassa [4]; Δ3βGΔcre cultures grown on or induced with the substance): unable to produce glucose or cellobiose from crystalline cellulose
